Source: patent publication US7795312B2, “Method for treating abdominal discomfort” (Sucampo AG, priority 2002, dated 2010)

Experiments:
Type in all cases: in vivo, human
[1] = system: patients with irritable bowel syndrome (IBS); assay: Abdominal bloating score in patients with irritable bowel syndrome; conditions: for Abdominal bloating score, Mean ± SD: IBS patients
Description: (§1) Patients with irritable bowel syndrome (IBS) were randomly allocated to the following two treatment groups. • Group 1: Test substance (13,14-dihydro-15-keto-16,16-difluoro-PGE1) 48 μg total (24 μg/breakfast+24 μg/dinner) • Group 2: Matching placebo (placebo/breakfast+placebo/dinner)
(§2) Each group underwent two weeks washout period and then began to administer oral test substance (capsules) or placebo (capsules) daily for 4 weeks. Test substance or placebo was taken two times a day (b.i.d) at breakfast with food and at least 8 ounces of water and at dinner with food and at least 8 ounces of water. The patients were asked to evaluate abdominal bloating upon waking in the morning, using a 5-point scale (Score: 0=absent, 1=mild, 2=moderate, 3=severe, 4=very severe) at 4 weeks after the initiation of the treatments.

[2] = system: patients with irritable bowel syndrome (IBS); assay: Abdominal discomfort score in patients with irritable bowel syndrome; conditions: for Abdominal discomfort score, Mean ± SD: IBS patients
Description: as §1
as §2, with “Patients” for “The patients”, “discomfort” for “bloating”

[3] = system: patients with occasional constipation; assay: Abdominal discomfort score in patients with occasional constipation; conditions: for Abdominal discomfort score, Mean ± SD: patients with constipation, oral capsules 48 μg total daily (24 μg b.i.d.), 5-point scale 0-4, p < 0.05 vs placebo
Description: Patients with occasional constipation were randomly allocated to the following two treatment groups. • Group 1: Test substance (13,14-dihydro-15-keto-16,16-difluoro-PGE1) 48 μg total (24 μg/breakfast+24 μg/dinner) • Group 2: Matching placebo (placebo/breakfast+placebo/dinner) Each group underwent two weeks washout period and then began to administer oral test substance (capsules) or placebo (capsules) daily for 4 weeks. During the washout period, the patient's bowel habit was documented to confirm the existence of constipation. Constipation is defined as, on average, less than three spontaneous bowel movements per week. All existing laxative medication was withdrawn at the start of the washout period and the patients were instructed not to change their diet or lifestyle during the study.
Test substance or placebo was taken orally for a total treatment period of 4 weeks; it was taken two times a day (b.i.d) at breakfast with food and at least 8 ounces of water and at dinner with food and at least 8 ounces of water. […]

[4] = system: patients with irritable bowel syndrome (IBS) exhibiting dyschezia; assay: Spontaneous bowel movement frequency in patients with IBS exhibiting dyschezia; conditions: for Spontaneous Bowel Movement Frequency Rates, Mean ± SD: IBS patients exhibiting dyschezia
Description: Each group underwent two weeks washout period and then began to administer oral test substance (capsules) or placebo (capsules) daily for 4 weeks. Test substance or placebo was taken two times a day (b.i.d) at breakfast with food and at least 8 ounces of water and at dinner with food and at least 8 ounces of water. After 3 consecutive days of not having spontaneous bowel movement, the investigator could prescribe to the patient 10 mg bisacodyl suppository as a rescue medication. If this was not effective, Fleet® enema could be used. During the study period, each patient documented bowel activity. A spontaneous bowel movement was defined as any bowel movement except for that occurred within 24 hours after the rescue medication. Frequency of spontaneous bowel movements at Baseline, Weeks 1, 2, 3 and 4 were analyzed.

[5] = Baseline, 5-point scale 0=absent to 4=very severe
[6] = Week 4, oral capsules 48 μg total daily (24 μg b.i.d.), 5-point scale 0-4, p < 0.01 vs placebo
[7] = oral 48 μg total daily for 4 weeks

CCCCC(F)(F)C(=O)CCC1C(O)CC(=O)C1CCCCCCC(=O)O (stereo not shown) [Test Substance, 13,14-dihydro-15-keto-16,16-difluoro-PGE1]
Abdominal bloating score, Mean ± SD [1, 5]: 2.50 ± 0.916 (32) | Abdominal bloating score, Mean ± SD [1, 6]: 1.74 ± 0.999 (31) | Effect on abdominal bloating in patients with IBS [1, 7]: significantly improved the abdominal bloating | Abdominal discomfort score, Mean ± SD [2, 5]: 2.25 ± 0.803 | Abdominal discomfort score, Mean ± SD [2, 6]: 1.48 ± 1.029 | Effect on abdominal discomfort in patients with IBS [2, 7]: significantly improved the abdominal discomfort | Abdominal discomfort score, Mean ± SD ([3]; Week 2): 1.09 ± 1.047 (116) | Abdominal discomfort score, Mean ± SD ([3]; Week 3): 1.27 ± 1.057 (117) | Abdominal discomfort score, Mean ± SD ([3]; Week 4): 1.22 ± 1.060 (117) | Effect on abdominal discomfort in patients with constipation [3, 7]: significantly improved the abdominal discomfort | Spontaneous Bowel Movement Frequency Rates, Mean ± SD ([4]; Baseline): 1.43 ± 0.773 (32) | Spontaneous Bowel Movement Frequency Rates, Mean ± SD ([4]; Week 1, oral capsules 48 μg total daily (24 μg b.i.d.), p < 0.01 vs placebo): 6.50 ± 4.108 (32) | Spontaneous Bowel Movement Frequency Rates, Mean ± SD ([4]; Week 2, oral capsules 48 μg total daily (24 μg b.i.d.), p < 0.01 vs placebo): 5.58 ± 4.003 (32) | Spontaneous Bowel Movement Frequency Rates, Mean ± SD ([4]; Week 3, oral capsules 48 μg total daily (24 μg b.i.d.), p < 0.01 vs placebo): 5.93 ± 4.775 (32) | Spontaneous Bowel Movement Frequency Rates, Mean ± SD ([4]; Week 4, oral capsules 48 μg total daily (24 μg b.i.d.), p < 0.05 vs placebo): 5.17 ± 4.333 (32) | Effect on spontaneous bowel movement frequency in patients with IBS exhibiting dyschezia [4, 7]: significantly improved the spontaneous bowel movement frequency
